The assay deals with T1, human 5-hydroxytryptamine receptor 1A (5-HT1A) (Homo sapiens, UniProt P08908).
T1 sequence (P08908 1-422): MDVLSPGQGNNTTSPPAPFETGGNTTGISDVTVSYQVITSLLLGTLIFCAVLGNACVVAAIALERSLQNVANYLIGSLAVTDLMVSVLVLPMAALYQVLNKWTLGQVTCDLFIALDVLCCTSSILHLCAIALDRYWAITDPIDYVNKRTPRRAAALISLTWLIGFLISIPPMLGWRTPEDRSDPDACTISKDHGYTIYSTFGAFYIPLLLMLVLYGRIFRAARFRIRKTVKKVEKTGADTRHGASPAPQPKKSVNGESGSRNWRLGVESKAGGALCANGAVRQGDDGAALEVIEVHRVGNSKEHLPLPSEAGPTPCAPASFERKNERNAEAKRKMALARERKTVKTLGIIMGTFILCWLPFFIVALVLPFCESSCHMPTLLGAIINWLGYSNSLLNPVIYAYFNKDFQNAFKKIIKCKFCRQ
In words: Human 5-HT1A radioligand binding assay ([3H]-8-Hydroxy-DPAT). Here is the method:
The objective of this study was to evaluate the binding properties of test compounds on 5-hydroxytryptamine receptor 1A (5-HT1A).
1. The assay buffer was prepared following Table 25 below.
2. 8 doses of reference and test compounds were prepared starting from 10 mM stock solution as required by 5-fold serial dilutions with 100% (v/v) DMSO.
3. UniFilter-96 GF/B plate was pretreated: • i. 50 μl/well of 0.5% (v/v) PEI was added to UniFilter-96 GF/B plates. The plates were sealed and incubated at 4° C. for 3 hrs. • ii. After incubation, the plates were washed 3 times with ice-cold wash buffer (50 mM Tris, pH7.4).
4. Assay plate was prepared: • i. Cell membrane was diluted with assay buffer and 100 μl/well was added to 96 round well plates to reach a concentration of 20 μg/well. • ii. 8 concentrations of reference or test compounds were prepared and 50 μl/well was added to 96 round deep well plates. • iii. [3H]-8-Hydroxy-DPAT was diluted with assay buffer to 2 nM (4× final concentration) and 50 μl/well was added to 96 round well plates.
5. The plate was centrifuged at 1000 rpm for 30 secs and then agitated at 600 rpm at room temperature for 5 min.
6. The plates were sealed and the plate was incubated at 27° C. for 90 min.
7. The incubation was stopped by vacuum filtration onto GF/B filter plates followed by 4 times washing with ice-cold wash buffer (50 mM Tris, pH7.4).
9. The filter plates were sealed and 40 μl/well of scintillation cocktail was added.
10. The plate was read by using a Microbeta^2 microplate counter.
1. For reference and test compounds, the results were expressed as % Inhibition, using the normalization equation: N=100−100×(U−C2)/(C1−C2), where U is the unknown value, C1 is the average of high controls, and C2 is the average of low controls.
2. The IC50 was determined by fitting percentage of inhibition as a […] of compound concentrations with Hill equation using XLfit.
1. The assay buffer was prepared following Table 55 below.
3. UniFilter-96 GF/B plate was pretreated: • i. 50 μL/well of 0.5% (v/v) PEI was added to UniFilter-96 GF/B plates. The plates were sealed and incubated at 4° C. for 3 hrs. • ii. After incubation, the plates were washed 3 times with ice-cold wash buffer (50 mM Tris, pH7.4).
4. Assay plate was prepared: • i. Cell membrane was diluted with assay buffer and 100 μl/well was added to 96 round well plates to reach a concentration of 20 μg/well. • ii. 8 concentrations of reference or test compounds were prepared and 50 μl/well was added to 96 round deep well plates. • iii. [3H]-8-Hydroxy-DPAT was diluted with assay buffer to 2 nM (4× final concentration) and 50 μL/well was added to 96 round well plates.

As usually defined, the IC50 is the midpoint of a concentration-inhibition curve. Lower therefore signals greater potency. The molecule `[2H]C([2H])(c1c[nH]c2ccc(OCCCCCN3C(=O)c4ccccc4C3=O)cc12)[C@H]1CCCN1C([2H])([2H])[2H]` [(R) I-245, (R)-2-(5-((3-((1-(Methyl-d3)pyrrolidin-2-yl)methyl-d2)-1H-indol-5-yl)oxy)pentyl)isoindoline-1,3-dione] registered an IC50 of 5 nM.

Take `COCCN1CCC[C@@H]1Cc1c[nH]c2ccc(OC)cc12` [(R) I-98, (R)-5-Methoxy-3-((1-(2-methoxyethyl)pyrrolidin-2-yl)methyl)-1H-indole]: the IC50 stood at 5 nM.

Take `CSc1ccc2[nH]cc(C[C@H]3CCCN3C)c2c1` [(R) I-1, (R)-3-((1-Methylpyrrolidin-2-yl)methyl)-5-(methylthio)-1H-indole]: the IC50 was found to be 3 nM.

`[2H]C([2H])(c1c[nH]c2ccc(OCCCCCN3C(=O)C4CCCCC4C3=O)cc12)[C@H]1CCCN1C([2H])([2H])[2H]` (mixture of isomers) [Rac (R) I-248] showed an IC50 of 8.3 nM.

With `[2H]C([2H])(c1c[nH]c2ccc(OCCCCN3C(=O)c4ccccc4C3=O)cc12)[C@H]1CCCN1C([2H])([2H])[2H]` [(R) I-244, (R)-2-(4-((3-((1-(Methyl-d3)pyrrolidin-2-yl)methyl-d2)-1H-indol-5-yl)oxy)butyl)isoindoline-1,3-dione], the 50% inhibitory concentration (IC50) is 15 nM.

The values are drawn from patent publication US12606543B2, “Indole derivatives as serotonergic agents useful for the treatment of disorders related thereto” (priority 2023, dated 2026).
